Experimental data: PMC7011955, “Synthesis and biological evaluation of certain hydrazonoindolin-2-one derivatives as new potent anti-proliferative agents” (Journal of Enzyme Inhibition and Medicinal Chemistry, 2018)
Entries after “also recorded” stand apart in the source; their conditions may differ. Like-named read-outs stand apart in the source and are kept apart here.

What was measured:
[1] = tested on: IEC-6, MCF-10A, Swiss-3t3 vs A-549 cell lines; test: Mean tumor selectivity index, non-tumorigenic lines vs A-549; assay type: cell-based; details: non-tumorigenic IEC-6, MCF-10A
Text: (§1) The cell growth inhibitory activity of compounds 7b and 10e was examined towards three non-tumorigenic cell lines to estimate their selectivity for tumor cells. A-549 human non-small cell lung cancer (NSCLC) cell line was included in the assay for comparison. […] IEC-6 cells derived from rat intestine show morphologic and karyotypic features of normal intestinal epithelial cells. Fibroblasts derived from embryonic tissue from mice (Swiss-3t3) are both non-tumorigenic and contact inhibited. Compounds 7b and 10e were tested quadruplicate at maximum concentrations of 25 µM, with subsequent 10 serially diluted concentrations.

[2] = tested on: A-549, ZR-75 and HT-29 cell lines; test: Average anti-proliferative activity over the three cancer cell lines; assay type: cell-based, human; details: average over A-549, ZR-75, HT-29; for Average growth inhibition % / inhibition at 30 µM: 30 µM; for inhibition at 30 µM / IC50: Homo sapiens; for inhibition at 30 µM: read-out: Average growth inhibition %
Description: (§2) The anti-proliferative activity of the title compounds 3a-e, 5a-e, 7a-c, and 10a-l towards cancer cell lines, normal cell lines, and multidrug-resistant lung cancer NCI-H69AR cell line was determined using CellTiter-Glo™ Luminescent cell viability assay according to the previously published procedures[14]^,[15].
(§3) The cancer cell growth inhibitory activity of the synthesised 25 compounds 3a-e, 5a-e, 7a-c, and 10a-l was evaluated in vitro towards three human cancer cell lines, namely lung cancer A-549, human colon cancer HT-29, and breast cancer ZR-75 cell lines using CellTiter-Glo™ Luminescent cell viability assay. Sunitinib was included in this assay as a reference drug.
(§4) The prepared hydrazonoindolin-2-ones were first evaluated at preliminary anti-proliferative assay against the three cancer cell lines in quadruplicate at a single concentration of 30 µM. The data presented as percentage growth inhibition (GI%) caused by the test compounds (Table 1).

Breast MCF-10A cells = test: Cell growth inhibition, non-tumorigenic MCF-10A; assay type: cell-based; details: Homo sapiens, maximum 25 µM, quadruplicate
Description: as §2, §1

[3] = tested on: breast cancer ZR-75 cell line; test: CellTiter-Glo Luminescent cell viability assay, anti-proliferative activity, ZR-75; assay type: cell-based, human; details: Homo sapiens, ZR75, mean ± SD of four separate experiments
Intestine IEC-6 cells = test: Cell growth inhibition, non-tumorigenic IEC-6; assay type: cell-based; details: Rattus norvegicus, maximum 25 µM, quadruplicate
Description: as §2, §1

[4] = tested on: breast cancer ZR-75 cell line; test: CellTiter-Glo Luminescent cell viability assay, anti-proliferative activity, ZR-75; assay type: cell-based; details: Homo sapiens, ZR75; 30 µM single concentration, quadruplicate; read-out: Growth inhibition % ZR-75
Description: as §2, §3, §4

[5] = tested on: colon cancer HT-29 cell line; test: CellTiter-Glo Luminescent cell viability assay, anti-proliferative activity, HT-29; assay type: cell-based; details: Homo sapiens, mean ± SD of four separate experiments
[6] = tested on: Fibroblast Swiss-3t3 cells; test: Cell growth inhibition, non-tumorigenic Swiss-3t3; assay type: cell-based, mice; details: Mus musculus, maximum 25 µM, quadruplicate
Description: as §2, §1

[7] = tested on: colon cancer HT-29 cell line; test: CellTiter-Glo Luminescent cell viability assay, anti-proliferative activity, HT-29; assay type: cell-based, human; details: Homo sapiens, HT-29; 30 µM single concentration, quadruplicate; read-out: Growth inhibition % HT-29
Description: as §2, §3, §4

[8] = tested on: lung cancer A-549 cell line; test: CellTiter-Glo Luminescent cell viability assay, anti-proliferative activity, A-549; assay type: cell-based, human; details: Homo sapiens; for inhibition at 30 µM: A549, 30 µM single concentration, read-out: Growth inhibition % A-549
Description: as §2, §3, §4

A-549 cells [9] = test: Reduction in total cell number, DAPI labeling and imaging cytometry; assay type: cell-based; details: Homo sapiens, A549
Description: (§5) Cell cycle effects of the synthesised compounds 7b and 10e were determined adopting the reported procedures[14]^,[15].
(§6) In this study, cancer cells derived from lung adenocarcinoma (A-549) were used to evaluate the effects of compounds 7b and 10e on various aspects of the cell cycle progression. Both immunofluorescent imaging of phosphorylated Rb protein and total DNA content of each cell were explored to determine the activity of compounds 7b and 10e over a range of concentrations less than 100 nM to 50 µM (Figures 3–5).
Figure 3. Effects on number and cell cycle distribution. A-549 cells were treated with dose curve. Compound 7b (left) or 10e (right). […]

A-549 cells [10] = test: Cell cycle distribution by DNA content; assay type: cell-based, human
Description: as §5, §6
Figure 3. Effects on number and cell cycle distribution. A-549 cells were treated with dose curve. Compound 7b (left) or 10e (right). Cell number per cell cycle was determined by DNA content by DAPI fluorescent labeling and imaging cytometry following 48 h treatment.

[11] = tested on: phosphorylated retinoblastoma (Rb) protein in A-549 cells; test: Immunofluorescent imaging of phosphorylated Rb protein; assay type: cell-based, human; details: for levels of phosphorylated Rb protein: A-549, less than 100 nM to 50 µM; for IC50: Homo sapiens, A549
Description: as §5, §6

[12] = tested on: NCI-H69AR cell line (expresses ABCC1 efflux pump); test: Growth inhibition of multidrug resistant lung cancer cell line; assay type: cell-based
Description: as §2
The anti-proliferative activity of compounds 7b and 10e was evaluated towards multidrug resistant lung cancer cell line (NCI-H69AR), which expresses the ABCC1 efflux pump protein. […] Furthermore, the H69AR cells manifested a lesser degree of resistance to the reference drug, Sunitinib (1.9-fold less sensitive).

[13] = A549, mean ± SD of four separate experiments, read-out: IC50 A-549
[14] = A549, selectivity assay, maximum 25 µM, quadruplicate, read-out: IC50 NSCLC A-549
[15] = A549, sensitive line in comparison with resistant NCI-H69AR, read-out: IC50 Sensitive A-549
[16] = A-549, 24 h treatment, read-out: IC50 for reductions in the total cell number, 24 h
[17] = A-549, 48 h treatment, read-out: IC50 for reductions in the total cell number, 48 h
[18] = A-549, 24 h treatment, read-out: IC50 for reduction in Rb phosphorylation, 24 h
[19] = A-549, 48 h treatment, read-out: IC50 for reduction in Rb phosphorylation, 48 h

Row | SMILES | Mean tumor selectivity [1] | Average growth inhibition % [2] [%] | inhibition at 30 µM [2] [%] | IC50 [2] [µM] | IC50 (Breast MCF-10A cells) [µM] | melting point [°C] | IC50 [3] [µM] | IC50 (Intestine IEC-6 cells) [µM] | inhibition at 30 µM [4] [%] | IC50 [5] [µM] | IC50 [6] [µM] | inhibition at 30 µM [7] [%] | IC50 [8, 13] [µM] | IC50 [8, 14] [µM] | IC50 [8, 15] [µM] | inhibition at 30 µM ([8]; quadruplicate) [%] | IC50 (A-549 cells [9]; [16]) [µM] | Cell cycle effects (A-549 cells [10]) | IC50 [11, 18] [µM] | IC50 [12] [µM] | also measured
1 | O=C1Nc2ccc(Cl)cc2C1=NN=Cc1ccn[nH]1 [Compound 7b, 3-(((1H-pyrazol-5-yl)methylene)hydrazono)-5-chloroindolin-2-one] | 1.6 | 89.6 | > 80 | 2.14 | 3.42 ± 0.45 | > 300 | 1.37 ± 0.23 | 8.7 ± 4.32 | 82.3 ± 15.2 | 2.75 ± 0.31 | 6.85 ± 0.76 | 94.9 ± 1.8 | 2.29 ± 0.21 | 3.84 ± 0.67 | 3.8 ± 0.67 | 91.5 ± 1.3 | 12.7 ± 13.6 | decrease in the percentage of cells in the G1 phase of the cell cycle with corresponding increase in the G2/M-phases; also recorded: G1 decreased and G2/M-phases increased | 12.1 ± 0.6 | 16 | IC50 (A-549 cells [9]; [17]): 8.08 ± 0.95 µM; levels of phosphorylated Rb protein [11]: significantly reduced in a dose-dependent manner; IC50 [11, 19]: 13.6 ± 0.6 µM
2 | O=C1Nc2ccc(Cl)cc2C1=NNc1nc(-c2ccccc2)cs1 [Compound 10e, 5-Chloro-3–(2-(4-phenylthiazol-2-yl)hydrazono)indolin-2-one] | 1.8 | 85.1 | > 80 | 4.66 | 5.37 ± 0.61 | 292 to 294 | 1.95 ± 1.03 | 8.98 ± 1.25 | 89.3 ± 7.2 | 7.25 ± 0.83 | 8.51 ± 1.01 | 85.7 ± 10.2 | 4.79 ± 0.45 | 4.13 ± 0.61 | 4.1 ± 0.61 | 80.4 ± 6 | 7.38 ± 1.04 | increase in the percentage of cells in the G1 phase of the cell cycle with corresponding decreases in S- and G2/M phases; also recorded: G1 increased and G2/M-phases decreased | 7.59 ± 0.38 | 16 | IC50 (A-549 cells [9]; [17]): 7.27 ± 1.15 µM; levels of phosphorylated Rb protein [11]: significantly reduced in a dose-dependent manner; IC50 [11, 19]: 12.5 ± 2.1 µM
3 | O=C1Nc2ccc(Br)cc2C1=NNc1nc(-c2ccccc2)cs1 [Compound 10i, 5-Bromo-3–(2-(4-phenylthiazol-2-yl)hydrazono)indolin-2-one] |  | 95.4 | > 80 | 5.45 |  | 285 to 287 | 1.96 ± 0.85 |  | 97.5 ± 3.1 | 8.26 ± 0.86 |  | 96.3 ± 5.9 | 6.13 ± 0.76 |  |  | 92.3 ± 6.2 |  |  |  |  | 
4 | Cc1ccc(-c2csc(NN=C3C(=O)Nc4ccc(Br)cc43)n2)cc1 [Compound 10j, 5-Bromo-3–(2-(4–(4-tolyl)thiazol-2-yl)hydrazono)indolin-2-one] |  | 83.0 | > 80 | 13 |  | > 300 | 10.9 ± 2.81 |  | 73.1 ± 3.5 | 15.2 ± 1.1 |  | 90.1 ± 5.3 | 12.8 ± 1.4 |  |  | 85.9 ± 9.1 |  |  |  |  | 
5 | O=C1Nc2ccc(Br)cc2C1=NNc1nc(-c2ccc(Cl)cc2)cs1 [Compound 10k, 5-Bromo-3–(2-(4–(4-chlorophenyl)thiazol-2-yl)hydrazono)indolin-2-one] |  |  | 63.3 | 14.5 |  | > 300 | 3.61 |  | 50.6 ± 11.5 | 19.8 ± 1.63 |  | 66.8 ± 19.1 | 20.1 ± 3.81 |  |  | 72.4 ± 3.5 |  |  |  |  | 
6 | CCN(CC)CCNC(=O)c1c(C)[nH]c(/C=C2\C(=O)Nc3ccc(F)cc32)c1C [Sunitinib, reference compound] | 1.4 |  | 78.7 |  |  |  |  |  | 90.7 ± 4.5 | 5.87 ± 0.3 |  | 85.7 ± 2.7 | 10.1 ± 0.8 | 3.06 ± 0.9 | 3.1 ± 0.9 | 59.5 ± 2.3 |  | G1 decreased and G2/M-phases increased | 3.18 ± 0.07 | 5.8 ± 0.52 | 
